Entries after “also recorded” stand apart in the source; their conditions may differ.
Legend:
[1] = system: patients with atrial fibrillation or flutter; assay: Safety and tolerability of intravenous tedisamil in patients with atrial fibrillation or flutter; assay type: in vivo, human
Description: The safety objective was: To determine the safety and tolerability of tedisamil versus placebo.
Safety was monitored regarding: Physical examination, ECG, 24-hour Holter monitoring, vital signs, laboratory evaluations and adverse events.
The intent-to-treat patient sample was analyzed for efficacy. All tests were two-sided and a p-value <0.05 was considered significant. Differences in percentages of conversion were compared among the treatment groups using the Pearson chi-square statistic. Safety analysis was conducted on the safety patient sample. Numbers and percentages of patients with adverse events were calculated for each treatment group, using MedDRA preferred terms and body systems. Descriptive statistics were summarized by treatment group for changes from baseline in QT, heart rate and blood pressure.
Physical examination, ECG, 24-hour Holter monitoring, vital signs, laboratory evaluations and adverse events.

[2] = system: healthy male subjects; assay: Two step infusion study in healthy male subjects: pharmacodynamics (12-lead ECG: QT, QTc, heart rate); assay type: in vivo, human; details: for Pharmacodynamic action on QT, QTc interval and heart rate: over two hours post dosing
Description: A double-blind, placebo-controlled, randomized, single iv dose, two periods cross-over study to assess the safety, tolerability, pharmacodynamics and pharmacokinetics during and following a two step infusion of Tedisamil in healthy male subjects was performed with the following drug and dosages: Tedisamil dihydrochloride/0.4 mg/kg body weight infused over 30 minutes.
• 1. To assess safety and tolerability of tedisamil in healthy male subjects during and following a two step infusion scheme (0.4 mg/kg body weight infused over 30 minutes, with half of the dose infused over 10 minutes and half of the dose infused over the remaining 20 minutes). • 2. […] Methodology:
This was a single center, double-blind, placebo-controlled, randomized, single iv dose, two period cross-over study. Subjects were randomly allocated to either treatment sequence tedisamil-placebo or placebo-tedisamil. Number of patients (planned, screened, randomized and analyzed): Planned: 18, Screened: 27, Randomized: 18, Analyzed: 18 in PK/PD and safety analyses.
Subjects were included in the study only if they were healthy males, their age was in the range of 18-40 years (both inclusive), their body mass index (BMI) was between 18 kg/m^2 and 28 kg/m^2. Test product, dose and mode of administration: Tedisamil dihydrochloride; Strength: 2 mg/ml; Dose: 0.4 mg/kg body weight infused over 30 minutes, with half of the dose infused over 10 minutes and half of the dose infused over the remaining 20 minutes. Route: intravenous.
12-lead ECG.s were taken at several time points to explore the pharmacodynamic effects of Tedisamil (effects on QT and QTc) during and following infusion. The maximum value and maximum increase were derived for QTc and QT and the minimum value and maximum decrease were derived for heart rate. The AUC(0-24) and the maximum for the placebo-corrected QTc and QT and the AUC(0-24) and the minimum for the placebo-corrected heart rate were also calculated.
Descriptive statistics were performed for the ECG intervals QT, QTc, RR, PR, QRS and for heart rate by treatment (tedisamil, placebo and “tedisamil−placebo”) and time point. Individual and mean (arithmetic mean±1 SD) time profiles for ECG intervals and heart rate were graphically presented for both treatments.
Derived parameters, i.e. maximum value and maximum increase for QTc and QT, and minimum value and maximum decrease for heart rate were submitted to separate analyses of (co)variance (covariance only for maximum and minimum values) including subject, treatment, sequence, and period as class effects (and the individual pre-dose value as covariate). Point estimates and 95% confidence intervals were constructed for the difference “tedisamil−placebo” using the residual variance. Model assumptions were checked by visual inspection of residual plots. Additionally, descriptive statistics were calculated for the derived parameters per treatment and for the difference “tedisamil−placebo”.
Descriptive statistics for the placebo corrected AUC(0-24) of QTc, QT and heart rate and the placebo corrected maximum effect (maximum for QTc and QT and minimum for heart rate) were calculated. In addition, 95% confidence intervals were derived based on normally distributed outcomes.

[3] = two-step infusion regimen, 0.4 and 0.6 mg/kg
[4] = 0.4 mg/kg tedisamil dihydrochloride iv, two step infusion over 30 minutes
[5] = difference tedisamil−placebo, analysis of covariance, 0.4 mg/kg iv two step infusion
[6] = difference tedisamil−placebo, analysis of variance, 0.4 mg/kg iv two step infusion
[7] = placebo-corrected, 0.4 mg/kg iv two step infusion

SMILES: C1CCC2(C1)C1CN(CC3CC3)CC2CN(CC2CC2)C1 [Tedisamil, N,N′-dicyclopropylmethyl-9,9-tetramethylene-3,7-diazabicyclo[3,3,1]nonane]
- TdP (Torsade de Point) ([1]; 30 min regimen, by gender): Almost all observed TdP (Torsade de Point) in 30 min regimen were in female patients
- Gender difference in safety issues ([1]; first study (Phase II)): male patients show less safety issues than female patients
- DC cardioversion required for treatment of VTs [1, 3]: no patient required DC cardioversion for treatment of VTs
- Sustained polymorphic VT [1, 3]: no sustained polymorphic VT were observed
- Tolerability in patients [1, 3]: well tolerated
- Heart Rate Max. Decrease, Arith. Mean (SD) [2, 4]: 10.6 (3.8) bpm
- Heart Rate Minimum, Arith. Mean (SD) [2, 4]: 49.2 (7.0) bpm
- QT Interval Max. Increase, Arith. Mean (SD) [2, 4]: 76.0 (22.4) ms
- QT Interval Maximum, Arith. Mean (SD) [2, 4]: 474.2 (39.2) ms
- QTc Interval Max. Increase, Arith. Mean (SD) [2, 4]: 61.1 (30.3) ms
- QTc Interval Maximum, Arith. Mean (SD) [2, 4]: 455.9 (30.0) ms
- Heart Rate Minimum, Estimate (Ted-Pla) [2, 5]: −4.01 bpm
- QT Interval Maximum, Estimate (Ted-Pla) [2, 5]: 58.4 ms
- QTc Interval Maximum, Estimate (Ted-Pla) [2, 5]: 34.0 ms
- Heart Rate Max. Decrease, Estimate (Ted-Pla) [2, 6]: 4.22 bpm
- QT Interval Max. Increase, Estimate (Ted-Pla) [2, 6]: 57.9 ms
- QTc Interval Max. Increase, Estimate (Ted-Pla) [2, 6]: 34.1 ms
- Pharmacodynamic action on QT, QTc interval and heart rate ([2]; two step infusion): a marked prolongation of QT and QTc interval and a distinct decrease in heart rate; also recorded: strong effect on QT, QTc and heart in the first two hours post dosing
- Pharmacodynamic action on QT, QTc interval and heart rate ([2]; two step infusion, listed as TEDI): a prolongation of QT and QTc intervals and a distinct decrease in heart rate
- Placebo-corrected Heart Rate AUC(0-24), Mean (SD) [2, 7]: −13.5 (11.5) bpm
- Placebo-corrected Heart Rate Minimum, Mean (SD) [2, 7]: −15.9 (6.0) bpm
- Placebo-corrected QT Interval AUC(0-24), Mean (SD) [2, 7]: 112.9 (382.9) ms
- Placebo-corrected QT Interval Maximum, Mean (SD) [2, 7]: 74.7 (36.7) ms
- Placebo-corrected QTc Interval AUC(0-24), Mean (SD) [2, 7]: 28.5 (170.5) ms
- Placebo-corrected QTc Interval Maximum, Mean (SD) [2, 7]: 63.9 (26.9) ms
- Effect on AUC(0-24) values of QT, QTc and heart rate ([2]; placebo-corrected, two step infusion): A significant effect of Tedisamil could not be found

Reference: patent US7087620B2, “Liquid pharmaceutical formulations containing 3,7-diazabicyclo[3,3,1]nonane compounds and methods of treatment relating to anti-arrhythmic events” (Solvay Pharmaceuticals GmbH, priority 2002, dated 2006)
